In brackets after ≈: the same amount, converted by molar mass. Several values for one entry are separate records, joined by “and”; a condition that tells them apart may be missing. Identical values can stand only once. Blank lines part the entries; values can stand above or below the compound they belong to.
Assays:
Assay in all cases: ≥ marks a high value that may be exact or a test limit, other limits are often not marked, values filed in µg/mL are converted to µM
[1] = system: Bacillus subtilis ATCC 23857
[2] = system: Escherichia coli ATCC 25922
[3] = system: Escherichia coli ATCC 700926
Escherichia coli BL21 = system: Escherichia coli BL21
[4] = system: Pseudomonas aeruginosa ATCC 27853
[5] = system: Pseudomonas aeruginosa ATCC 9027
[6] = system: Staphylococcus aureus ATCC 43300
[7] = system: Staphylococcus aureus ATCC 6538P
[8] = system: Staphylococcus aureus ATCC 6538
[9] = system: Staphylococcus aureus USA 300
[10] = system: Staphylococcus aureus USA 400
[11] = system: Staphylococcus epidermidis ATCC 12228
[12] = system: Batrachochytrium dendrobatidis JEL-197
[13] = system: Candida albicans ATCC 10231
[14] = system: Candida albicans ATCC 90028
[15] = system: Enterococcus faecalis NCTC 12697
[16] = system: Escherichia coli ATCC BAA-2340
[17] = system: Klebsiella pneumoniae ATCC 43816
[18] = system: Klebsiella pneumoniae ATCC BAA-1705
[19] = system: Staphylococcus aureus ATCC 12493
[20] = system: Staphylococcus aureus B038 V1S1A
Staphylococcus aureus = system: Staphylococcus aureus
[21] = system: Acinetobacter baumannii NM109
[22] = system: Acinetobacter baumannii NM124
[23] = system: Acinetobacter baumannii NM35
[24] = system: Acinetobacter baumannii NM75
[25] = system: Acinetobacter baumannii NM8
[26] = system: Enterococcus faecalis ATCC 29212
[27] = system: Escherichia coli ATCC 25726
[28] = system: Klebsiella pneumoniae ATCC 700603
[29] = system: Staphylococcus aureus 145/08
[30] = system: Staphylococcus aureus ATCC 25923
[31] = system: Staphylococcus epidermidis RP62A/1
[32] = system: Staphylococcus epidermidis RP62A
[33] = system: Staphylococcus epidermidis T37/8
[34] = system: Staphylococcus epidermidis T6/19
[35] = system: Stenotrophomonas maltophilia B32/1
[36] = system: Stenotrophomonas maltophilia B32/4
[37] = system: Stenotrophomonas maltophilia B5/5
[38] = system: Stenotrophomonas maltophilia B6/2
[39] = system: Stenotrophomonas maltophilia U8908
[40] = system: Salmonella enterica subsp. enterica serovar Typhi
[41] = system: Staphylococcus epidermidis
Vibrio cholerae = system: Vibrio cholerae
[42] = system: Acinetobacter baumannii ATCC 19606
[43] = system: Candida albicans NCTC 3179
[44] = system: Lactobacillus acidophilus NCTC 1723
[45] = system: Pseudomonas aeruginosa 8600
[46] = system: Streptococcus mutans NCTC 10449

SMILES: CC[C@H](C)[C@H](NC(=O)[C@H](CCCCN)NC(=O)[C@H](CCCCN)NC(=O)[C@@H](NC(=O)[C@@H](NC(=O)[C@H](CCCCN)NC(=O)[C@H](CCCCN)NC(=O)[C@@H](NC(=O)[C@@H](NC(=O)[C@H](CCCCN)NC(=O)[C@H](CCCCN)NC(=O)[C@@H](NC(=O)[C@@H](NC(=O)CN)[C@@H](C)CC)[C@@H](C)CC)[C@@H](C)CC)[C@@H](C)CC)[C@@H](C)CC)[C@@H](C)CC)C(=O)O [GIIKKIIKKIIKKI]
- MIC [1]: 2.4 µM (≈ 3.93 µg/mL)
- MIC [2]: 5.7 µM (≈ 9.33 µg/mL)
- MIC [3]: 15.6 µM (≈ 25.5 µg/mL)
- MIC (Escherichia coli BL21): 15.6 µM (≈ 25.5 µg/mL)
- MIC [4]: 15.6 µM (≈ 25.5 µg/mL)
- MIC [5]: 9.3 µM (≈ 15.2 µg/mL)
- MIC [6]: 125 µM (≈ 205 µg/mL)
- MIC [7]: 7.8 µM (≈ 12.8 µg/mL)
- MIC [8]: 128 µM and 62.5 µM
- MIC [9]: ≥ 125 µM
- MIC [10]: ≥ 125 µM
- MIC [11]: 3.9 µM (≈ 6.38 µg/mL)

SMILES: CC[C@H](C)[C@H](NC(=O)CN)C(=O)N[C@@H](CC(C)C)C(=O)N[C@@H](CC(=O)O)C(=O)N[C@@H](CO)C(=O)N[C@@H](Cc1ccccc1)C(=O)N[C@@H](CCCCN)C(=O)N[C@@H](CC(=O)O)C(=O)N[C@H](C(=O)N[C@@H](C)C(=O)N[C@@H](CCCCN)C(=O)NCC(=O)N[C@H](C(=O)N[C@@H](C)C(=O)N[C@H](C(=O)N[C@@H](Cc1cnc[nH]1)C(=O)N[C@@H](CC(C)C)C(=O)N[C@@H](CC(C)C)C(=O)N[C@@H](CC(N)=O)C(=O)N[C@@H](CCSC)C(=O)N[C@@H](C)C(=O)N[C@@H](CCCCN)C(=O)N[C@H]1CSSC[C@@H](C(=O)O)NC(=O)CNC(=O)[C@H]([C@@H](C)O)NC(=O)[C@H](CCSC)NC(=O)[C@H](CCCCN)NC1=O)[C@@H](C)O)C(C)C)C(C)C [GILDSFKDVAKGVATHLLNMAKCKMTGC]
- MIC [12]: ≥ 100 µM

SMILES: CC[C@H](C)[C@H](NC(=O)[C@H](CCCCN)NC(=O)[C@@H](NC(=O)[C@H](CO)NC(=O)[C@H](CC(N)=O)NC(=O)[C@H](Cc1c[nH]c2ccccc12)NC(=O)[C@H](CC(C)C)NC(=O)CN)[C@@H](C)CC)C(=O)N[C@@H](C)C(=O)NCC(=O)N[C@@H](CCCCN)C(=O)N[C@@H](CCCCN)C(=O)N[C@@H](CC(C)C)C(=O)N[C@@H](Cc1ccccc1)C(=O)N[C@H](C(=O)N[C@@H](CC(N)=O)C(=O)N[C@H](C(=O)N[C@@H](CC(C)C)C(=O)N[C@@H](CC(=O)O)C(=O)N[C@@H](CCCCN)C(=O)N[C@H](C(=O)N[C@@H](CCCN=C(N)N)C(=O)N[C@H]1CSSC[C@@H](C(=O)O)NC(=O)CNC(=O)CNC(=O)[C@H](C)NC(=O)[C@H](C(C)C)NC(=O)[C@H](CCCCN)NC1=O)[C@@H](C)CC)C(C)C)C(C)C [GLWNSIKIAGKKLFVNVLDKIRCKVAGGC]
- MIC [13]: 128 µM (≈ 401 µg/mL)
- MIC [14]: ≥ 100 µM
- MIC [15]: 16 µM (≈ 50.1 µg/mL)
- MIC [16]: 2 µM (≈ 6.26 µg/mL)
- MIC [17]: 8 µM (≈ 25 µg/mL)
- MIC [18]: 4 µM (≈ 12.5 µg/mL)
- MIC [5]: 16 µM (≈ 50.1 µg/mL)
- MIC [19]: 8 µM (≈ 25 µg/mL)
- MIC [6]: 12.5 µM (≈ 39.1 µg/mL)
- MIC [8]: 1.6 µM and 4 µM
- MIC [20]: 2 µM (≈ 6.26 µg/mL)
- MIC (Staphylococcus aureus): 4 µM (≈ 12.5 µg/mL)

SMILES: CC[C@H](C)[C@H](NC(=O)[C@H](C)NC(=O)[C@@H](NC(=O)[C@H](C)NC(=O)CNC(=O)[C@H](CCCCN)NC(=O)[C@@H](NC(=O)[C@H](C)NC(=O)CNC(=O)[C@H](CCCCN)NC(=O)[C@H](CC(C)C)NC(=O)[C@@H](NC(=O)[C@H](CCCCN)NC(=O)[C@H](CCCCN)NC(=O)[C@H](CC(C)C)NC(=O)[C@@H](NC(=O)[C@H](CC(=O)O)NC(=O)[C@H](CCCCN)NC(=O)[C@@H](NC(=O)[C@H](CCCCN)NC(=O)[C@@H]1CCCN1C(=O)[C@H](CO)NC(=O)[C@H](CC(C)C)NC(=O)[C@H](CCCCN)NC(=O)[C@@H](N)CC(C)C)[C@@H](C)O)[C@@H](C)O)C(C)C)[C@@H](C)CC)[C@@H](C)CC)C(=O)N[C@@H](C)C(=O)N[C@@H](CO)C(=O)N[C@@H](CCSC)C(=O)N[C@@H](C)C(N)=O [LKLSPKTKDTLKKVLKGAIKGAIAIASMA]
- MIC [21]: 5 µM (≈ 15 µg/mL)
- MIC [22]: 2.5 µM (≈ 7.49 µg/mL)
- MIC [23]: 5 µM (≈ 15 µg/mL)
- MIC [24]: 2.5 µM (≈ 7.49 µg/mL)
- MIC [25]: 5 µM (≈ 15 µg/mL)
- MIC [14]: ≥ 80 µM
- MIC [26]: 20 µM (≈ 59.9 µg/mL)
- MIC [27]: 10 µM and 5 µM
- MIC [28]: 10 µM (≈ 29.9 µg/mL)
- MIC [4]: 20 µM (≈ 59.9 µg/mL)
- MIC [29]: 2.5 µM (≈ 7.49 µg/mL)
- MIC [30]: 2.5 µM (≈ 7.49 µg/mL)
- MIC [31]: 1.25 µM (≈ 3.74 µg/mL)
- MIC [32]: 1.25 µM (≈ 3.74 µg/mL)
- MIC [33]: 1.25 µM (≈ 3.74 µg/mL)
- MIC [34]: 1.25 µM (≈ 3.74 µg/mL)
- MIC [35]: 2.5 µM (≈ 7.49 µg/mL)
- MIC [36]: 1.25 µM (≈ 3.74 µg/mL)
- MIC [37]: 2.5 µM (≈ 7.49 µg/mL)
- MIC [38]: 1.25 µM (≈ 3.74 µg/mL)
- MIC [39]: 5 µM (≈ 15 µg/mL)

Further lines, with some results ahead:

- MIC [40]: 0.687 µM (≈ 0.66 µg/mL)
- MIC [41]: 0.687 µM (≈ 0.66 µg/mL)
SMILES: CC(C)C[C@H](NC(=O)[C@H](CO)NC(=O)CNC(=O)[C@H](C)NC(=O)[C@@H](N)CC(N)=O)C(=O)N[C@@H](CC(C)C)C(=O)N[C@@H](CO)C(=O)NCC(=O)N[C@@H](Cc1c[nH]c2ccccc12)C(=O)NCC(=O)O [NAGSLLSGWG]
- MIC (Vibrio cholerae): 3 µM (≈ 2.88 µg/mL)

- MIC [42]: > 94.9 µM
- MIC [43]: 6.01 µM (≈ 8.09 µg/mL)
- MIC [15]: ≥ 371 µM
- MIC [44]: ≥ 54.9 µM
- MIC [45]: ≥ 94.9 µM
- MIC [46]: ≥ 127 µM
SMILES: CSCC[C@H](NC(=O)[C@H](CC(C)C)NC(=O)CNC(=O)[C@H](Cc1ccccc1)NC(=O)[C@H](Cc1ccccc1)NC(=O)[C@H](CCC(N)=O)NC(=O)[C@H](CCC(N)=O)NC(=O)[C@@H]1CCCN1C(=O)[C@H](CCCCN)NC(=O)[C@@H]1CCCN1C(=O)[C@@H](N)CCCN=C(N)N)C(N)=O [RPKPQQFFGLM]

From DBAASP
